Measured values from ChEMBL document CHEMBL2046329, “Furin inhibitors: importance of the positive formal charge and beyond” (Bioorg Med Chem, 2012).
Residues, ends and D or L forms follow the SMILES beside them.

The compounds below were run against Furin (Homo sapiens, UniProt P09958) (assay: Inhibition of furin).
Chain of Furin (P09958 whole entry): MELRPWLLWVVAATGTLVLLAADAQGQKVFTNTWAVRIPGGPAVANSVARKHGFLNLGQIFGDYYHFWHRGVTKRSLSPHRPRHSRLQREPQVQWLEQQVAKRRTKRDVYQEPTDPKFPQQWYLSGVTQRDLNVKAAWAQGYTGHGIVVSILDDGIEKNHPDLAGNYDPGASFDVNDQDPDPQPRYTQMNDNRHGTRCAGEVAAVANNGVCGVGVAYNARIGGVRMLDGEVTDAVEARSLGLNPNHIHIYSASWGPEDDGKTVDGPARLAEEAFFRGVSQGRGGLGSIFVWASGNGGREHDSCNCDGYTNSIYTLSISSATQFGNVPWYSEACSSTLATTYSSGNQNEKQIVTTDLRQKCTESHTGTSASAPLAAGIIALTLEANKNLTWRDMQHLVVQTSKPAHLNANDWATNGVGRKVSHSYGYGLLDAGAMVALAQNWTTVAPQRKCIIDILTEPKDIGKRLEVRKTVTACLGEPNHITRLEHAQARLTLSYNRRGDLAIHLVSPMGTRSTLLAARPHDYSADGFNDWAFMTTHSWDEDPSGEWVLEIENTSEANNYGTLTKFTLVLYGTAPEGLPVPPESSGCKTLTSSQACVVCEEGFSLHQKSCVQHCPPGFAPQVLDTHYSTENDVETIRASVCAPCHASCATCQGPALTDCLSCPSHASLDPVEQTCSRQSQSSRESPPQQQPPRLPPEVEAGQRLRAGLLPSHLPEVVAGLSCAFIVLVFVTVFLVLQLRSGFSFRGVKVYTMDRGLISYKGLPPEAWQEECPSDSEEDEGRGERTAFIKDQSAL

SMILES	Ki [nM]
CC(=O)N[C@@H](CC(C)C)C(=O)N[C@@H](CC(C)C)C(=O)N[C@@H](CCCN=C(N)N)C(=O)N[C@H](C(=O)N[C@@H](CCCCN)C(=O)N[C@@H](CCCN=C(N)N)C(=O)O)C(C)C	3500
CC(C)[C@H](NC(=O)[C@H](CCCN=C(N)N)NCC(=O)Oc1ccccc1)C(=O)N[C@@H](CCCN=C(N)N)C(=O)NCCCN	3020
CC(C)[C@H](NC(=O)[C@H](CCCNC(=N)N)NCC(=O)Oc1ccccc1)C(=O)N[C@@H](CCCNC(=N)N)C(=O)NCCCCN	7490
CC(C)[C@H](NC(=O)[C@H](CCCN=C(N)N)NCC(=O)Oc1ccccc1)C(=O)N[C@@H](CCCN=C(N)N)C(=O)NCCCCCN=C(N)N	1070
CC(C)[C@H](NC(=O)[C@H](CCCNC(=N)N)NCC(=O)Oc1ccccc1)C(=O)N[C@@H](CCCNC(=N)N)C(=O)Nc1ccc(CNC(=N)N)cc1	1430
CC(C)[C@H](NC(=O)[C@H](CCCN=C(N)N)NCC(=O)Oc1ccccc1)C(=O)N[C@@H](CCCN=C(N)N)C(=O)Nc1cccc(CN)c1	1320
CC(C)[C@H](NC(=O)[C@H](CCCN=C(N)N)NCC(=O)Oc1ccccc1)C(=O)N[C@@H](CCCN=C(N)N)C(=O)Nc1cccc(CN=C(N)N)c1	2730
CC(C)[C@H](NC(=O)[C@H](CCCNC(=N)N)NCC(=O)Oc1ccccc1)C(=O)N[C@@H](CCCNC(=N)N)C(=O)NC1CCNCC1	9710
CC(=O)N[C@@H](CC(C)C)C(=O)N[C@@H](CC(C)C)C(=O)N[C@@H](CCCN=C(N)N)C(=O)N[C@H](C(=O)N[C@@H](CCCCN)C(=O)N[C@@H](CCCN=C(N)N)C(N)=O)C(C)C	1400
CSCC[C@H](NC(=O)[C@H](CC(C)C)NC(C)=O)C(=O)N[C@@H](CCCNC(=N)N)C(=O)N[C@H](C(=O)N[C@@H](CCCCN)C(=O)N[C@@H](CCCNC(=N)N)C(N)=O)C(C)C (Ac-LMRVKR-NH2)	1900
CC(=O)N[C@@H](CC(C)C)C(=O)N[C@@H](Cc1ccc(O)cc1)C(=O)N[C@@H](CCCN=C(N)N)C(=O)N[C@H](C(=O)N[C@@H](CCCCN)C(=O)N[C@@H](CCCN=C(N)N)C(N)=O)C(C)C (Ac-LYRVKR-NH2)	3400
N=C(N)NCCC[C@H](NC(=O)[C@H](CCCNC(=N)N)NC(=O)[C@H](CCCNC(=N)N)NC(=O)[C@@H](N)CCCNC(=N)N)C(=O)O (H-RRRR-OH)	6400

Compounds with a lower Ki, results first:

Ki [nM]	SMILES
63	CC(C)[C@H](NC(=O)[C@H](CCCNC(=N)N)NCC(=O)Oc1ccccc1)C(=O)N[C@@H](CCCNC(=N)N)C(=O)NCCCNC(=N)N
78	CC(C)[C@H](NC(=O)[C@H](CCCNC(=N)N)NCC(=O)Oc1ccccc1)C(=O)N[C@@H](CCCNC(=N)N)C(=O)NCCCCNC(=N)N
553	CC(C)[C@H](NC(=O)[C@H](CCCNC(=N)N)NCC(=O)Oc1ccccc1)C(=O)N[C@@H](CCCNC(=N)N)C(=O)NCCCCCN
627	CCc1ccc(NC(=O)[C@H](CCCNC(=N)N)NC(=O)[C@@H](NC(=O)[C@H](CCCNC(=N)N)NCC(=O)Oc2ccccc2)C(C)C)cc1
53	CC(C)[C@H](NC(=O)[C@H](CCCN=C(N)N)NCC(=O)Oc1ccccc1)C(=O)N[C@@H](CCCN=C(N)N)C(=O)NC1CCN(C(=N)N)CC1
1.6	CCCCCCCCCC(=O)N[C@@H](CCCN=C(N)N)C(=O)N[C@H](C(=O)N[C@@H](CCCN=C(N)N)C(=O)Nc1ccc(C(=N)N)cc1)C(C)C
1	CC(=O)N[C@@H](CCCNC(=N)N)C(=O)N[C@H](C(=O)N[C@@H](CCCNC(=N)N)C(=O)Nc1ccc(C(=N)N)cc1)C(C)C
3.3	CCCCCCCCCC(=O)N[C@@H](CCCN=C(N)N)C(=O)N[C@H](C(=O)N[C@@H](CCCCN)C(=O)Nc1ccc(C(=N)N)cc1)C(C)C
800	CC(C)C[C@H](NC(=O)[C@@H](N)CC(C)C)C(=O)N[C@@H](CCCNC(=N)N)C(=O)N[C@H](C(=O)N[C@@H](CCCCN)C(=O)N[C@@H](CCCNC(=N)N)C(N)=O)C(C)C
420	CC(C)C[C@H](NC(=O)[C@@H](N)CC(C)C)C(=O)N[C@@H](CCCNC(=N)N)C(=O)N[C@H](C(=O)N[C@@H](CCCCN)C(=O)N[C@@H](CCCNC(=N)N)C(=O)O)C(C)C
114	NC(N)=NCCC[C@H](NC(=O)[C@H](CCCN=C(N)N)NC(=O)[C@H](CCCN=C(N)N)NC(=O)[C@H](CCCN=C(N)N)NC(=O)[C@H](CCCN=C(N)N)NC(=O)[C@@H](N)CCCN=C(N)N)C(=O)O
190	CC(=O)N[C@@H](CC(C)C)C(=O)N[C@@H](CCCCN)C(=O)N[C@@H](CCCN=C(N)N)C(=O)N[C@H](C(=O)N[C@@H](CCCCN)C(=O)N[C@@H](CCCN=C(N)N)C(N)=O)C(C)C (Ac-LKRVKR-NH2)
990	N=C(N)NCCC[C@H](NC(=O)[C@H](CCCNC(=N)N)NC(=O)[C@H](CCCNC(=N)N)NC(=O)[C@H](CCCNC(=N)N)NC(=O)[C@@H](N)CCCNC(=N)N)C(=O)O (H-RRRRR-OH)
